Data reported in patent US11261183B2, “Sulfoximine glycosidase inhibitors” (Asceneuron SA, priority 2016, dated 2022).
pIC50: −log10 of the molar value.

Columns and labels:
[1] = Protein binding in mice plasma using Rapid Equilibrium Dialysis; assay type: in vitro ADME, CD1 mice; details: 37° C.; for fraction unbound at 5 h, 1 µM: male, CD1, mouse, plasma, pH 7.4, CD1 mouse plasma
Description: Example B04: Protein binding in mice plasma using Rapid Equilibrium Dialysis
• CD1 Mice Plasma: pooled male, K2-EDTA ([…]2, Bioreclammation, USA • Phosphate Buffered Saline (1×PBS), pH 7.4, 100 mM (Sigma, Cat No. P4417) • RED inserts (Pierce, Cat No. 9006, 8 kDa MWCO) • Sample Analysis: LC-MS/MS Methods • Preparation of DMSO Stock Solution
From 20 mM DMSO stock solutions of reference and test compounds, 1 mM DMSO intermediate working solutions are prepared. From 1 mM intermediate working solutions, 100 μM DMSO working solutions are prepared. • Sample Preparation Procedure:
Selected plasma is brought from −20° C. to 37° C. using water bath before its use. Test solution is prepared by adding the DMSO working solution of the reference or test compound (2 μL; 100 μM) to the selected plasma (198 μL). Spiked plasma (200 μl) is transferred to sample compartment of RED insert placed in the teflon plate. 350 μl of 1×PBS is added in the buffer compartment of RED insert. The teflon plate is covered with sealing mat and agitated at 37° C. for 5 hours at 500 RPM in a Thermomixer. After incubation time, an aliquot of plasma (50 μl) from sample compartment is mixed with blank 1×PBS (50 μl). Similarly, an aliquot of buffer (50 μl) from buffer compartment is mixed with blank plasma (50 μl). Quenching solution (200 μL, acetonitrile containing internal standard tolbutamide (0.5 μg/mL)) is added and the resulting solutions are mixed using a vortex mixer and centrifuged (Eppendorf 5415, 13792 g). Supernatants are analyzed using a Mass Spectrometer. The sample (supernatant fraction, 5 μL) is injected into the LC-MS/MS instrument. • Chromatographic Conditions: LC-MS/MS: API 4000 LC-MS/MS Software: Analyst Version 1.6.1 Column Phenomenex Synergy 30*4.6*5μ Column Oven: 40° C. Mode: ESI Positive Injection volume: 5 μl Flow Rate: […] Buffer: 0.1% Formic acid in Water Method: Isocratic Method/Gradient Composition: A) 0.1% Formic acid in Water B) 0.1% Formic acid in Methanol
After the concentration of free drug and total drug has been determined by LCMS/MS, percent plasma protein binding can be calculated as follows:
[formula] Following this protocol, % fraction unbound in plasma from different species can be also measured.

[2] = target: Human O-GlcNAcase (His-Tagged hOGA) (Homo sapiens (Human), UniProt O60502); experiment: Human O-GlcNAcase enzyme inhibition assay; assay type: biochemical; details: His-Tagged hOGA 20 nM, FL-GlcNAc 10 μM, 60 min, room temperature, pH 6.5; read-out: Enzymatic OGA IC50
Description: Example B01: Human O-GlcNAcase enzyme inhibition assay
5 μl of the appropriate concentration of a solution of inhibitor in McIlvaine's Buffer (pH 6.5) in 2% DMSO (for a dose response curve calculation) is added into each well of a 384-well plate (Greiner, 781900). Then, 20 nM of His-Tagged hOGA and 10 μM of FL-GlcNAc (Fluorescein mono-beta-D-(2-deoxy-2-N-acetyl) glucopyranoside; Marker Gene Technologies Inc, M1485) were added to the 384-well plate for a final volume of 20 μl. After incubation for 60 min at room temperature, the reaction was terminated by the addition of 10 μL of stop buffer (200 mM glycine, pH 10.75).

Chain of Human O-GlcNAcase (His-Tagged hOGA) (O60502 whole entry): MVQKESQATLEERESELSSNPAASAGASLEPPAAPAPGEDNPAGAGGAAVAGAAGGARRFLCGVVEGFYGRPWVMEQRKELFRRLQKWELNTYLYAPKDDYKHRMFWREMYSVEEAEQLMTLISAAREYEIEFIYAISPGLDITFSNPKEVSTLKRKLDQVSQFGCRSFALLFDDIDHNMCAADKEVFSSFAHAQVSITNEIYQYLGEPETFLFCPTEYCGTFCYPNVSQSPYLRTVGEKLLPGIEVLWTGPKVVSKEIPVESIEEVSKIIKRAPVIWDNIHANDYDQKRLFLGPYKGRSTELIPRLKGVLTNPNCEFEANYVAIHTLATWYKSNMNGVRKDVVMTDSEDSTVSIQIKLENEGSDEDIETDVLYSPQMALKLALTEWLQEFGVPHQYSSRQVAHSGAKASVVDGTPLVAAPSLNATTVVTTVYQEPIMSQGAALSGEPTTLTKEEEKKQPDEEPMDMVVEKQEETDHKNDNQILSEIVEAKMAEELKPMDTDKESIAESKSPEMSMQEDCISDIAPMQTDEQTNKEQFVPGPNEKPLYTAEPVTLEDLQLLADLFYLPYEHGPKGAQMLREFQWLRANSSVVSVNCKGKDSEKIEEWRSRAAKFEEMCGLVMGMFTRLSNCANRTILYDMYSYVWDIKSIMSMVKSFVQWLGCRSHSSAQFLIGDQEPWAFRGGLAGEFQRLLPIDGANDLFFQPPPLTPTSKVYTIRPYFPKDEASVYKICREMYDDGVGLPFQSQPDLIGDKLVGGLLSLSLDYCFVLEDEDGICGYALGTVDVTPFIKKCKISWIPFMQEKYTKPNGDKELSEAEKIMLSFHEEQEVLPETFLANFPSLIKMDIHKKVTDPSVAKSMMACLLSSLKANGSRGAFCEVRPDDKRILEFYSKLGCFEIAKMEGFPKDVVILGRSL

% fraction unbound in mouse plasma ([1]; CD1 mouse plasma, 5 hours) | pIC50 [2] | fraction unbound at 5 h, 1 µM [1] | SMILES
33.7% | > 7.30 | – | CC(c1ccc2scnc2c1)N1CCN(c2ncc(S(C)(=N)=O)cn2)CC1 (single isomer, unassigned) [Example 35]
– | > 7.30 | 0.208 | COCCN=S(C)(=O)c1cnc(N2CCN(C(C)c3ccc4c(c3)OCC4)CC2)nc1 (single isomer, unassigned) [Example 17]
– | > 7.30 | 0.18 | CC(c1ccc2scnc2c1)N1CCN(c2ccc(S(C)(=N)=O)cn2)CC1 (racemic) [Example 26, (6-(4-(1-(benzo[d]thiazol-5-yl)ethyl)piperazin-1-yl)pyridin-3-yl)(imino)(methyl)-λ^6-sulfanone]
– | > 7.30 | 0.115 | Cc1nc2cc(C(C)N3CCN(c4ccc(S(C)(=N)=O)cn4)CC3)ccc2s1 (racemic) [Example 46, imino(methyl)(6-(4-(1-(2-methylbenzo[d]thiazol-5-yl)ethyl)piperazin-1-yl)pyridin-3-yl)-λ^6-sulfanone]
– | > 7.30 | 0.261 | CCS(=N)(=O)c1ccc(N2CCN(C(C)c3ccc4c(c3)OCC4)CC2)nc1 (racemic) [Example 6, (6-(4-(1-(2,3-dihydrobenzofuran-6-yl)ethyl)piperazin-1-yl)pyridin-3-yl)(ethyl)(imino)-λ^6-sulfanone]
– | 6.70 to 7.30 | 0.39 | Cc1nc2cc(C(C)N3CCN(c4ncc(S(C)(=N)=O)cn4)CC3)ccc2o1 (racemic) [Example 55, imino(methyl)(2-(4-(1-(2-methylbenzo[d]oxazol-5-yl)ethyl)piperazin-1-yl)pyrimidin-5-yl)-λ^6-sulfanone]
